From patent US9555039B2, “Piperidine derivatives and compositions for the inhibition of nicotinamide phosphoribosyltransferase (NAMPT)” (Forma TM, LLC., priority 2011, dated 2017)
pIC50: −log10 of the molar value.

Key:
[1] = test system: A2780 cells; experiment: In-vitro cell proliferation assay (SRB, 72 hours); assay type: cell-based; conditions: Homo sapiens, sulforhodamine B (SRB) assay
In short: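 Background from media-only plate subtracted; inhibition relative to DMSO-treated cells, value derived by interpolation between two concentrations.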

[2] = target: T1, Recombinant His-tagged NAMPT (Homo sapiens, UniProt P43490); experiment: Biochemical inhibition assay: NAMPT enzymatic reaction, NMN quantified by mass spectrometry; conditions: 33 nM NAMPT, 1 μM NAM, 100 μM PRPP, 2.5 mM ATP, 30 minutes at room temperature; read-out: Biochem IC50
T1 construct: His; host or cells: E. coli
T1 sequence (P43490 whole entry): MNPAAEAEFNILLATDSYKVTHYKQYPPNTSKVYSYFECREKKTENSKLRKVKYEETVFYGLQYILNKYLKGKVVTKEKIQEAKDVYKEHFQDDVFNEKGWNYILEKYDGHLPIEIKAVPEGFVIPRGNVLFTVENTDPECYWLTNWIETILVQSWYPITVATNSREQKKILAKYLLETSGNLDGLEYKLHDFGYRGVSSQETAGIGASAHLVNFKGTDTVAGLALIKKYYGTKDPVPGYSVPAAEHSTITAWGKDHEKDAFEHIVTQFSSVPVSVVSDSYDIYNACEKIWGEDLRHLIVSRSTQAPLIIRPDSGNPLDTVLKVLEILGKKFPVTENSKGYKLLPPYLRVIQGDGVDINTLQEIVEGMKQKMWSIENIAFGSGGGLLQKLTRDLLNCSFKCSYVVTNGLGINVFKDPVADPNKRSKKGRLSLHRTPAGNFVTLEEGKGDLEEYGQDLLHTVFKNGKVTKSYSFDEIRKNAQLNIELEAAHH
In short: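 Reaction 30 min at room temperature with 1 μM NAM, 100 μM PRPP, 2.5 mM ATP (final), quenched with formic acid. NMN quantified by RapidFire electrospray MS, normalized to L-cystathionine; IC50 from percent inhibition versus DMSO.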

Structure (SMILES) | pIC50 [1] | pIC50 [2]
O=C(NCCCCC1CCN(C(=O)c2ccc(F)c(F)c2)CC1)c1cc2cnccc2[nH]1 [N-(4-{1-[(3,4-difluorophenyl)carbonyl]piperidin-4-yl}butyl)-1H-pyrrolo[3,2-c]pyridine-2-carboxamide] | 7.69 | 7.25
O=C(NCCCCC1CCN(C(=O)c2ccc(F)c(F)c2)CC1)c1ccc2nccn2c1 [N-(4-{1-[(3,4-difluorophenyl)carbonyl]piperidin-4-yl}butyl)imidazo[1,2-a]pyridine-6-carboxamide] | 7.18 | 7.72
O=C(NCCCCC1CCN(C(=O)c2ccc(F)c(F)c2)CC1)c1cc2ccncc2s1 [N-(4-{1-[(3,4-difluorophenyl)carbonyl]piperidin-4-yl}butyl)thieno[2,3-c]pyridine-2-carboxamide] | 6.00 to 7.00 | 7.64
COc1ccc(C(=O)N2CCC(CCCCNC(=O)c3cc4cnccc4[nH]3)CC2)cc1OC [N-(4-{1-[(3,4-dimethoxyphenyl)carbonyl]piperidin-4-yl}butyl)-1H-pyrrolo[3,2-c]pyridine-2-carboxamide] | 8.52 | 7.16
COc1ccc(C(=O)N2CCC(CCCCNC(=O)c3ccc4nccn4c3)CC2)cc1OC [N-(4-{1-[(3,4-dimethoxyphenyl)carbonyl]piperidin-4-yl}butyl)imidazo[1,2-a]pyridine-6-carboxamide] | 8.54 | 7.41
COc1ccc(C(=O)N2CCC(CCCCNC(=O)c3cc4ccncc4s3)CC2)cc1OC [N-(4-{1-[(3,4-dimethoxyphenyl)carbonyl]piperidin-4-yl}butyl)thieno[2,3-c]pyridine-2-carboxamide] | 8.16 | 7.49
O=C(NCCCCC1CCN(C(=O)c2cc(Cl)cc(Cl)c2)CC1)c1cc2cnccc2[nH]1 [N-(4-{1-[(3,5-dichlorophenyl)carbonyl]piperidin-4-yl}butyl)-1H-pyrrolo[3,2-c]pyridine-2-carboxamide] | 7.89 | 7.09
O=C(NCCCCC1CCN(C(=O)c2cc(Cl)cc(Cl)c2)CC1)c1ccc2nccn2c1 [N-(4-{1-[(3,5-dichlorophenyl)carbonyl]piperidin-4-yl}butyl)imidazo[1,2-a]pyridine-6-carboxamide] | 7.48 | 7.21
O=C(NCCCCC1CCN(C(=O)c2cc(Cl)cc(Cl)c2)CC1)c1cc2ccncc2s1 [N-(4-{1-[(3,5-dichlorophenyl)carbonyl]piperidin-4-yl}butyl)thieno[2,3-c]pyridine-2-carboxamide] | 7.29 | 7.52
COc1cc(OC)cc(C(=O)N2CCC(CCCCNC(=O)c3cc4cnccc4[nH]3)CC2)c1 [N-(4-{1-[(3,5-dimethoxyphenyl)carbonyl]piperidin-4-yl}butyl)-1H-pyrrolo[3,2-c]pyridine-2-carboxamide] | 8.59 | 7.13
COc1cc(OC)cc(C(=O)N2CCC(CCCCNC(=O)c3cc4ccncc4s3)CC2)c1 [N-(4-{1-[(3,5-dimethoxyphenyl)carbonyl]piperidin-4-yl}butyl)thieno[2,3-c]pyridine-2-carboxamide] | 7.69 | 7.24
O=C(NCCCCC1CCN(S(=O)(=O)c2cccc(Cl)c2)CC1)c1cc2cnccc2[nH]1 [N-(4-{1-[(3-chlorobenzene)sulfonyl]piperidin-4-yl}butyl)-1H-pyrrolo[3,2-c]pyridine-2-carboxamide] | 7.56 | 7.41
O=C(NCCCCC1CCN(C(=O)c2cccc(Cl)c2)CC1)c1ccc2nccn2c1 [N-(4-{1-[(3-chlorophenyl)carbonyl]piperidin-4-yl}butyl)imidazo[1,2-a]pyridine-6-carboxamide] | 7.65 | 7.77
O=C(NCCCCC1CCN(C(=O)c2cccc(Cl)c2)CC1)c1cc2ccncc2s1 [N-(4-{1-[(3-chlorophenyl)carbonyl]piperidin-4-yl}butyl)thieno[2,3-c]pyridine-2-carboxamide] | 7.34 | 7.48
CCOc1cccc(C(=O)N2CCC(CCCCNC(=O)c3cc4cnccc4[nH]3)CC2)c1 [N-(4-{1-[(3-ethoxyphenyl)carbonyl]piperidin-4-yl}butyl)-1H-pyrrolo[3,2-c]pyridine-2-carboxamide] | 7.96 | 7.07
CCOc1cccc(C(=O)N2CCC(CCCCNC(=O)c3ccc4nccn4c3)CC2)c1 [N-(4-{1-[(3-ethoxyphenyl)carbonyl]piperidin-4-yl}butyl)imidazo[1,2-a]pyridine-6-carboxamide] | 7.88 | 7.99
CCOc1cccc(C(=O)N2CCC(CCCCNC(=O)c3cc4ccncc4s3)CC2)c1 [N-(4-{1-[(3-ethoxyphenyl)carbonyl]piperidin-4-yl}butyl)thieno[2,3-c]pyridine-2-carboxamide] | 7.12 | 7.41
Cc1c(F)cccc1C(=O)N1CCC(CCCCNC(=O)c2cc3cnccc3[nH]2)CC1 [N-(4-{1-[(3-fluoro-2-methylphenyl)carbonyl]piperidin-4-yl}butyl)-1H-pyrrolo[3,2-c]pyridine-2-carboxamide] | 8.51 | 7.69

Structure (SMILES) | pIC50 [1] | pIC50 [2]
Cc1c(F)cccc1C(=O)N1CCC(CCCCNC(=O)c2ccc3nccn3c2)CC1 [N-(4-{1-[(3-fluoro-2-methylphenyl)carbonyl]piperidin-4-yl}butyl)imidazo[1,2-a]pyridine-6-carboxamide] | 8.46 | 7.88
Cc1c(F)cccc1C(=O)N1CCC(CCCCNC(=O)c2cc3ccncc3s2)CC1 [N-(4-{1-[(3-fluoro-2-methylphenyl)carbonyl]piperidin-4-yl}butyl)thieno[2,3-c]pyridine-2-carboxamide] | 8.49 | 8.17
COc1ccc(C(=O)N2CCC(CCCCNC(=O)c3cc4cnccc4[nH]3)CC2)cc1F [N-(4-{1-[(3-fluoro-4-methoxyphenyl)carbonyl]piperidin-4-yl}butyl)-1H-pyrrolo[3,2-c]pyridine-2-carboxamide] | 7.68 | 7.20
COc1ccc(C(=O)N2CCC(CCCCNC(=O)c3ccc4nccn4c3)CC2)cc1F [N-(4-{1-[(3-fluoro-4-methoxyphenyl)carbonyl]piperidin-4-yl}butyl)imidazo[1,2-a]pyridine-6-carboxamide] | 7.19 | 7.69
COc1ccc(C(=O)N2CCC(CCCCNC(=O)c3cc4ccncc4s3)CC2)cc1F [N-(4-{1-[(3-fluoro-4-methoxyphenyl)carbonyl]piperidin-4-yl}butyl)thieno[2,3-c]pyridine-2-carboxamide] | 6.00 to 7.00 | 7.15
Cc1ccc(C(=O)N2CCC(CCCCNC(=O)c3cc4cnccc4[nH]3)CC2)cc1F [N-(4-{1-[(3-fluoro-4-methylphenyl)carbonyl]piperidin-4-yl}butyl)-1H-pyrrolo[3,2-c]pyridine-2-carboxamide] | 7.65 | 7.11
Cc1ccc(C(=O)N2CCC(CCCCNC(=O)c3cc4ccncc4s3)CC2)cc1F [N-(4-{1-[(3-fluoro-4-methylphenyl)carbonyl]piperidin-4-yl}butyl)thieno[2,3-c]pyridine-2-carboxamide] | 6.00 to 7.00 | 7.38
O=C(NCCCCC1CCN(C(=O)c2cccc(F)c2)CC1)c1cc2cnccc2[nH]1 [N-(4-{1-[(3-fluorophenyl)carbonyl]piperidin-4-yl}butyl)-1H-pyrrolo[3,2-c]pyridine-2-carboxamide] | 8.48 | 7.79
O=C(NCCCCC1CCN(C(=O)c2cccc(F)c2)CC1)c1ccc2nccn2c1 [N-(4-{1-[(3-fluorophenyl)carbonyl]piperidin-4-yl}butyl)imidazo[1,2-a]pyridine-6-carboxamide] | 7.99 | 8.04
O=C(NCCCCC1CCN(C(=O)c2cccc(F)c2)CC1)c1cc2ccncc2s1 [N-(4-{1-[(3-fluorophenyl)carbonyl]piperidin-4-yl}butyl)thieno[2,3-c]pyridine-2-carboxamide] | 8.13 | 8.11
COc1cccc(C(=O)N2CCC(CCCCNC(=O)c3cc4ccncc4s3)CC2)c1 [N-(4-{1-[(3-methoxyphenyl)carbonyl]piperidin-4-yl}butyl)thieno[2,3-c]pyridine-2-carboxamide] | 7.96 | 7.58
COc1cc(Cl)ccc1C(=O)N1CCC(CCCCNC(=O)c2cc3cnccc3[nH]2)CC1 [N-(4-{1-[(4-chloro-2-methoxyphenyl)carbonyl]piperidin-4-yl}butyl)-1H-pyrrolo[3,2-c]pyridine-2-carboxamide] | 8.21 | 7.21
COc1cc(Cl)ccc1C(=O)N1CCC(CCCCNC(=O)c2ccc3nccn3c2)CC1 [N-(4-{1-[(4-chloro-2-methoxyphenyl)carbonyl]piperidin-4-yl}butyl)imidazo[1,2-a]pyridine-6-carboxamide] | 7.57 | 7.09
COc1cc(Cl)ccc1C(=O)N1CCC(CCCCNC(=O)c2cc3ccncc3s2)CC1 [N-(4-{1-[(4-chloro-2-methoxyphenyl)carbonyl]piperidin-4-yl}butyl)thieno[2,3-c]pyridine-2-carboxamide] | 7.89 | 7.81
O=C(NCCCCC1CCN(S(=O)(=O)c2ccc(Cl)cc2)CC1)c1cc2cnccc2[nH]1 [N-(4-{1-[(4-chlorobenzene)sulfonyl]piperidin-4-yl}butyl)-1H-pyrrolo[3,2-c]pyridine-2-carboxamide] | 7.56 | 7.30
O=C(NCCCCC1CCN(C(=O)c2ccc(Cl)cc2)CC1)c1cc2cnccc2[nH]1 [N-(4-{1-[(4-chlorophenyl)carbonyl]piperidin-4-yl}butyl)-1H-pyrrolo[3,2-c]pyridine-2-carboxamide] | 7.18 | 6.94
O=C(NCCCCC1CCN(C(=O)c2ccc(Cl)cc2)CC1)c1ccc2nccn2c1 [N-(4-{1-[(4-chlorophenyl)carbonyl]piperidin-4-yl}butyl)imidazo[1,2-a]pyridine-6-carboxamide] | 6.00 to 7.00 | 7.07
